Test results published in PMC6440977, “Nucleoside analogue activators of cyclic AMP-independent protein kinase A of Trypanosoma” (Nature Communications, 2019).
Several values for one entry are separate records, joined by “and”; a condition that tells them apart may be missing. Equal values may be shown once. Read-outs that look alike come from different tables or passages of the source.

Assays:
T. brucei PKA [1] = target: T1, T. brucei PKA (Trypanosoma brucei brucei, UniProt Q9GU80); assay: In vivo PKA reporter assay (VASP Ser-157 phosphorylation, western blot); format: cell-based;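 also: T. brucei cells expressing human VASP as heterologous PKA substrate, compound exposure at 37 °C, western blot of phospho (50 kDa) versus unphosphorylated (46 kDa) VASP band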
T1 sequence (Q38DS1 entry or part of it): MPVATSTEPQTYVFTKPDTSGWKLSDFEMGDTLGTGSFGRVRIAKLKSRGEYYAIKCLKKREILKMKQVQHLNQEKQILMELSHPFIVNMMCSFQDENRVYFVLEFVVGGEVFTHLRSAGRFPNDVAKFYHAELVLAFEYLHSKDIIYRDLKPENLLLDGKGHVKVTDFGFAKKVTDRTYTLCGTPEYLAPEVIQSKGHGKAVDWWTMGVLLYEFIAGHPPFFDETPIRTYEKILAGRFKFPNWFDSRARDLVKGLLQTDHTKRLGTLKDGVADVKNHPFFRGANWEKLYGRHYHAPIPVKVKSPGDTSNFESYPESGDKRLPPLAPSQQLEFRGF
T1 sequence (Q38DR5 entry or part of it, further chain): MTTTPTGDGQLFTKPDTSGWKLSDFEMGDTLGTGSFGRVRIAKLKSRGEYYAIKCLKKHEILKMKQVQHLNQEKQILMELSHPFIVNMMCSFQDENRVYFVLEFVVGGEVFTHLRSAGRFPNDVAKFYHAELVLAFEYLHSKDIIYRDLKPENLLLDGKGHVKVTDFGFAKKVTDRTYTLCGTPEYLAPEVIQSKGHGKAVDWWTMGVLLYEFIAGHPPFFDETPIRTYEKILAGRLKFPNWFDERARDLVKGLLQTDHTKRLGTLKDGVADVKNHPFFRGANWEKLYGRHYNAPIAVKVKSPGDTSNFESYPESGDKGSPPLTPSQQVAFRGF
T1 sequence (Q9GU80 entry or part of it): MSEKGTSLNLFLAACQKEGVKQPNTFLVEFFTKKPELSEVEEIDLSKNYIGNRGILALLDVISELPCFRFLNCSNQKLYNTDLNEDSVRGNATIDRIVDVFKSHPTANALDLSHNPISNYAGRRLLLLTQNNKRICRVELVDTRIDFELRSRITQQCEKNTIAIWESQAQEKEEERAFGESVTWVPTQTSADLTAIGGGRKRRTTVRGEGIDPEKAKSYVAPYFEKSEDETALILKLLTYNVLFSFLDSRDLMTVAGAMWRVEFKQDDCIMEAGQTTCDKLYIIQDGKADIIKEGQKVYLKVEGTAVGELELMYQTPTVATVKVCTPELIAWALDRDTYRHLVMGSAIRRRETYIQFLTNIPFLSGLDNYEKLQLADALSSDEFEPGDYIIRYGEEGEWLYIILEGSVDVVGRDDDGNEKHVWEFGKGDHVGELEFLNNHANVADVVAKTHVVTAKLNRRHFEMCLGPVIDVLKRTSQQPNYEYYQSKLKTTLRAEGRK

[2] = target: T. brucei PKAR-PKAC1 holoenzyme (Trypanosoma brucei, UniProt Q9GU80); assay: biochemical; format: biochemical; settings: for In vitro kinase assay: technical replicates
T. brucei PKAR-PKAC1 holoenzyme, sequence (Q38DR5 entry or part of it): as the sequence (Q38DR5 entry or part of it, further chain) above

T. brucei PKAR(199–499) = T. brucei PKAR(199–499) (Trypanosoma brucei, UniProt Q9GU80); assay: biochemical; format: binding; design: Thermodynamics (ITC) -TΔS / Thermodynamics (ITC) ΔG / Thermodynamics (ITC) ΔH: unit: kcal/mol
T. brucei PKAR(199–499), sequence (Q9GU80 entry or part of it): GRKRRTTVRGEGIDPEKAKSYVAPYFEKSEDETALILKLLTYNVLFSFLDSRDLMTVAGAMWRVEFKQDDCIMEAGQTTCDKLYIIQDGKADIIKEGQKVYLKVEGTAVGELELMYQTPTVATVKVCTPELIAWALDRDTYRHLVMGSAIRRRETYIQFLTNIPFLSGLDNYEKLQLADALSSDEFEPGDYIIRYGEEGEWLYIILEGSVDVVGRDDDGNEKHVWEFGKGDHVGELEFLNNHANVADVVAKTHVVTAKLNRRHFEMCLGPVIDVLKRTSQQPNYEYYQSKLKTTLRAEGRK

human PKARIα = target: T2, human PKARIα (Homo sapiens, UniProt P10644); assay: Binding by isothermal titration calorimetry (ITC)
T2 construct: The full length ORFs (amplified with primers introducing the respective); 6xHis followed by TEV site (N); made in house; host or cells: E. coli Rosetta D3
T2 sequence (P10644 whole entry): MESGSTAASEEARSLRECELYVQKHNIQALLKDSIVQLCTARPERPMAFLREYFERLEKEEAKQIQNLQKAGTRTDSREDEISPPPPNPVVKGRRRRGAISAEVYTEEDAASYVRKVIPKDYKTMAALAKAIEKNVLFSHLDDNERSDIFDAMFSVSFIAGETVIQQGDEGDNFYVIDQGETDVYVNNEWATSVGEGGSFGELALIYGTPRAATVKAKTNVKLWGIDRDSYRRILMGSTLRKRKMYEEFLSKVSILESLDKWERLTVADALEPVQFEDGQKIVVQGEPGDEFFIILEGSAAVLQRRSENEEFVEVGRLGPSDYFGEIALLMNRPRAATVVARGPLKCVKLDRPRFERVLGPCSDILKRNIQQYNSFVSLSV

[3] = tested on: T. brucei ∆pkar/∆pkar (pkar KO) cells; assay: microbe, parasite or virus in culture; format: cell-based, Trypanosoma brucei; settings: for EC50: pkar KO cells
[4] = target: T3, mammalian PKARIα2–2PKACα holoenzyme (Homo sapiens, UniProt P10644); assay: In vitro kinase assay with purified mammalian holoenzyme; format: biochemical, human PKARIα, mouse PKACα; settings: for In vitro kinase assay: technical replicates
T3 construct: The full length ORFs (amplified with primers introducing the respective); made in house; host or cells: E. coli strain APE304 (adenylate cyclase-deficient)
T3 sequence (P10644 whole entry): as above

[5] = tested on: RXXS*/T* site phosphorylation; assay: Western blot of global RXXS*/T* site phosphorylation (phospho-PKA substrate antibody); format: cell-based, Trypanosoma brucei; settings: wild type, 2 µM, 10 min
metacaspase 4 (MCA4) = format: cell-based, Trypanosoma brucei; settings: for MCA4 counts / MCA4 normalized / MCA4 fold change: 4 µM; for MCA4 normalized: normalized to PFR-A/C; for MCA4 fold change: untreated WT set to 1
PKAC1/2 = format: cell-based, Trypanosoma brucei; settings: 4 µM; for PKAC1/2 normalized: normalized to PFR-A/C; for PKAC1/2 fold change: untreated WT set to 1;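 as to all read-outs here: trypanosoma brucei cells, PKAC1/2 signal from western blots read on an infrared fluorescence scanning system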
T. brucei BSF cells (WT) = assay: Alamar blue cell viability assay, wild type; settings: for EC50: wild type cells;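 as to all read-outs here: trypanosomes seeded at 5×10^3 per ml and grown 72 h with compound, then resazurin 0.5 mM added for 4 h as the viability read-out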
[6] = tested on: T. brucei PKA holoenzyme (Ty1-PKAC1); format: biochemical, Trypanosoma brucei; settings: for in vitro kinase assay [CPM], average: average of 3; for in vitro kinase assay [CPM]: independent replicates
[7] = tested on: T. brucei PKA holoenzyme (PKAR-Ty1); format: biochemical, Trypanosoma brucei; settings: for in vitro kinase assay [CPM], average: average of 3; for in vitro kinase assay [CPM]: independent replicates
[8] = tested on: T. brucei PKA holoenzyme (HA-PKAC2); format: biochemical, Trypanosoma brucei; settings: for in vitro kinase assay [CPM], average: average of 3; for in vitro kinase assay [CPM]: independent replicates
T. brucei PKA [9] = target: T1, T. brucei PKA; settings: ref Shalaby et al. (reference 23 in manuscript); cited from earlier work

N#Cc1cn([C@@H]2O[C@H](CO)[C@@H](O)[C@H]2O)c2ncnc(N)c12 [Toyo, 7-Cyano-7-deazaadenosine]
EC50 (T. brucei PKA [1]; VASP reporter, 15 min treatment, mean ± SD, read-out: EC50 in vivo PKA assay): 88 nM and 87.6 nM | induction of VASP phosphorylation in pkar knock out, in words (T. brucei PKA [1]; homozygous deletion of PKAR): did not induce phosphorylation of VASP | In vitro kinase assay ([2]; 0.001 µM): 0.11 U/ml and 0.14 U/ml | In vitro kinase assay ([2]; 0.01 µM): 0.16 U/ml | In vitro kinase assay ([2]; 0.02 µM): 0.18 U/ml and 0.15 U/ml | In vitro kinase assay ([2]; 0.04 µM): 0.31 U/ml and 0.25 U/ml | In vitro kinase assay ([2]; 0.08 µM): 0.3 U/ml and 0.33 U/ml | In vitro kinase assay ([2]; 0.16 µM): 0.45 U/ml and 0.4 U/ml | In vitro kinase assay ([2]; 0.31 µM): 0.58 U/ml and 0.64 U/ml | In vitro kinase assay ([2]; 0.63 µM): 0.61 U/ml and 0.73 U/ml | In vitro kinase assay ([2]; 1.25 µM): 0.71 U/ml and 0.74 U/ml | In vitro kinase assay ([2]; 2.5 µM): 0.78 U/ml and 0.82 U/ml | In vitro kinase assay ([2]; 5 µM): 0.82 U/ml and 0.75 U/ml and 4.49 U/ml and 4.39 U/ml | EC50 ([2]; kemptide phosphorylation, mean ± SD, read-out: EC50 in vitro PKA assay): 234 ± 92 nM | Kd (T. brucei PKAR(199–499); 298 K, mean ± SD, n=3, read-out: KD in vitro binding to PKAR (ITC)): 57 ± 25 nM | −TΔS (entropic component of binding) (T. brucei PKAR(199–499); ITC, mean): -0.9 kcal/mol | Thermodynamics (ITC) -TΔS (T. brucei PKAR(199–499); independent replicates): -2.01 and -0.373 and -0.411 | Thermodynamics (ITC) ΔG (T. brucei PKAR(199–499); independent replicates): -10.3 and -9.67 and -9.84 | Thermodynamics (ITC) ΔH (T. brucei PKAR(199–499); independent replicates): -8.26 and -9.3 and -9.43 | Molar ratio of binding (ITC) (T. brucei PKAR(199–499); ligand to protein, mean ± SD, n=3): 2.1 ± 0.1 | binding to purified human PKARIα, in words (human PKARIα): did not bind | IC50 ([3]; Trypanosoma brucei, 72 h, read-out: IC50 growth pkar KO): 690 ± 58 nM | EC50 ([3]; Trypanosoma brucei, read-out: EC50, Alamar blue cell viability assay, KO, individual replicate results): 941 nM | EC50 ([3]; read-out: EC50, Alamar blue cell viability assay, KO, individual replicate results): 768 nM and 560 nM and 610 nM and 492 nM and 666 nM and 791 nM | In vitro kinase assay ([4]; 0.05 µM): 0.0536 U/ml and 0.052 U/ml | In vitro kinase assay ([4]; 0.5 µM): 0.0466 U/ml and 0.0501 U/ml | In vitro kinase assay ([4]; 5 µM): 0.0571 U/ml and 0.0671 U/ml | In vitro kinase assay ([4]; 50 µM): 0.067 U/ml and 0.0605 U/ml | activation of mammalian PKARIα2–2PKACα holoenzyme, in words ([4]; up to 270-fold above EC50 for T. brucei PKA holoenzyme): did not activate | increase in global RXXS*/T* site phosphorylation [5]: 3–4 fold | MCA4 counts (metacaspase 4 (MCA4); WT, 12 h): 10.96 | MCA4 normalized (metacaspase 4 (MCA4); WT, 12 h): 7.611 | MCA4 fold change (metacaspase 4 (MCA4); WT, 12 h): 0.5155 | MCA4 counts (metacaspase 4 (MCA4); WT, 18 h): 19.07 | MCA4 normalized (metacaspase 4 (MCA4); WT, 18 h): 24.1392 | MCA4 fold change (metacaspase 4 (MCA4); WT, 18 h): 1.635 | MCA4 counts (metacaspase 4 (MCA4); WT, 24 h): 23.58 | MCA4 normalized (metacaspase 4 (MCA4); WT, 24 h): 24.8211 | MCA4 fold change (metacaspase 4 (MCA4); WT, 24 h): 1.681 | MCA4 abundance, in words (metacaspase 4 (MCA4); later time points, PKA-independent): elevated | MCA4 counts (metacaspase 4 (MCA4); pkar KO, 12 h): 13.45 | MCA4 normalized (metacaspase 4 (MCA4); pkar KO, 12 h): 0.4781 | MCA4 fold change (metacaspase 4 (MCA4); pkar KO, 12 h): 0.9855 | MCA4 counts (metacaspase 4 (MCA4); pkar KO, 18 h): 12.35 | MCA4 normalized (metacaspase 4 (MCA4); pkar KO, 18 h): 0.669 | MCA4 fold change (metacaspase 4 (MCA4); pkar KO, 18 h): 1.379 | MCA4 counts (metacaspase 4 (MCA4); pkar KO, 24 h): 14.17 | MCA4 normalized (metacaspase 4 (MCA4); pkar KO, 24 h): 0.8557 | MCA4 fold change (metacaspase 4 (MCA4); pkar KO, 24 h): 1.764 | MCA4 abundance, in words (metacaspase 4 (MCA4); wild type, 12 h post induction): decreased | PKAC1/2 counts (PKAC1/2; WT, 12 h): 34.11 | PKAC1/2 normalized (PKAC1/2; WT, 12 h): 23.6875 | PKAC1/2 fold change (PKAC1/2; WT, 12 h): 0.1712 | PKAC1/2 counts (PKAC1/2; WT, 18 h): 35.81 | PKAC1/2 normalized (PKAC1/2; WT, 18 h): 45.3291 | PKAC1/2 fold change (PKAC1/2; WT, 18 h): 0.3275 | PKAC1/2 counts (PKAC1/2; WT, 24 h): 31.4 | PKAC1/2 normalized (PKAC1/2; WT, 24 h): 33.0526 | PKAC1/2 fold change (PKAC1/2; WT, 24 h): 0.2388 | PKAC1/2 counts (PKAC1/2; pkar KO, 12 h): 38.16 | PKAC1/2 normalized (PKAC1/2; pkar KO, 12 h): 1.357 | PKAC1/2 fold change (PKAC1/2; pkar KO, 12 h): 0.08353 | PKAC1/2 counts (PKAC1/2; pkar KO, 18 h): 35.91 | PKAC1/2 normalized (PKAC1/2; pkar KO, 18 h): 1.945 | PKAC1/2 fold change (PKAC1/2; pkar KO, 18 h): 0.1198 | PKAC1/2 counts (PKAC1/2; pkar KO, 24 h): 34.95 | PKAC1/2 normalized (PKAC1/2; pkar KO, 24 h): 2.111 | PKAC1/2 fold change (PKAC1/2; pkar KO, 24 h): 0.13 | IC50 (T. brucei BSF cells (WT); Trypanosoma brucei, 72 h, read-out: IC50 growth WT): 739 ± 59 nM | EC50 (T. brucei BSF cells (WT); Trypanosoma brucei, read-out: EC50, Alamar blue cell viability assay, WT, individual replicate results): 866 nM | EC50 (T. brucei BSF cells (WT); read-out: EC50, Alamar blue cell viability assay, WT, individual replicate results): 746 nM and 898 nM and 614 nM and 641 nM and 510 nM and 901 nM

Nc1nc2c(ncn2[C@@H]2O[C@@H]3COP(=O)(O)O[C@H]3[C@H]2O)c(=O)[nH]1 [cGMP]
concentration at which the holoenzyme is activated [6]: ≥ 100 µM | in vitro kinase assay [CPM], PKI ([6]; 0.1 mM + 5 µM PKI(5-24), Supp Fig 3b): 1147.4 CPM | in vitro kinase assay [CPM], average ([6]; 0.1 mM, Supp Fig 3b): 13459.0 CPM | in vitro kinase assay [CPM] ([6]; 0.1 mM, Supp Fig 3b): 15124.3 CPM and 11079.5 CPM and 14173.3 CPM | in vitro kinase assay [CPM], PKI ([6]; 1 mM + 5 µM PKI(5-24), Supp Fig 3b): 3732 CPM | in vitro kinase assay [CPM], PKI ([6]; 1 mM + 5 µM PKI(5-24), Supp Fig 3c): 1928.6 CPM | in vitro kinase assay [CPM], average ([6]; 1 mM, Supp Fig 3b): 48614.9 CPM | in vitro kinase assay [CPM] ([6]; 1 mM, Supp Fig 3b): 51091.7 CPM and 52665 CPM and 42088 CPM | in vitro kinase assay [CPM], average ([6]; 1 mM, Supp Fig 3c): 18465.6 CPM | in vitro kinase assay [CPM] ([6]; 1 mM, Supp Fig 3c): 15510 CPM and 18398 CPM and 21488.7 CPM | concentration at which the holoenzyme is activated [7]: ≥ 100 µM | in vitro kinase assay [CPM], PKI ([7]; 0.1 mM + 5 µM PKI(5-24)): 1137.33 CPM | in vitro kinase assay [CPM], average ([7]; 0.1 mM): 8446.6 CPM | in vitro kinase assay [CPM] ([7]; 0.1 mM): 9140 CPM and 8772.75 CPM and 7427.05 CPM | in vitro kinase assay [CPM], PKI ([7]; 1 mM + 5 µM PKI(5-24)): 3682.78 CPM | in vitro kinase assay [CPM], average ([7]; 1 mM): 22856.7 CPM | in vitro kinase assay [CPM] ([7]; 1 mM): 17347.2 CPM and 27346.7 CPM and 23876.3 CPM | concentration at which the holoenzyme is activated [8]: ≥ 100 µM | in vitro kinase assay [CPM], PKI ([8]; 0.1 mM + 5 µM PKI(5-24)): 375.47 CPM | in vitro kinase assay [CPM], average ([8]; 0.1 mM): 2249 CPM | in vitro kinase assay [CPM] ([8]; 0.1 mM): 2477.88 CPM and 2206.3 CPM and 2062.83 CPM | in vitro kinase assay [CPM], PKI ([8]; 1 mM + 5 µM PKI(5-24)): 760.33 CPM | in vitro kinase assay [CPM], average ([8]; 1 mM): 8405.46 CPM | in vitro kinase assay [CPM] ([8]; 1 mM): 9366.36 CPM and 9774.29 CPM and 6075.73 CPM | cGMP concentration activating T. brucei PKA (T. brucei PKA [9]): ≥ 20 µM
